“Also recorded” adds a separate entry of the source.
Legend:
[1] = molecular target: T1, Lifeact-mCherry binding to F-actin (Oryctolagus cuniculus, UniProt P68135); test: F-actin and Lifeact-mCherry co-sedimentation assay; design: species or system New Zealand white rabbit (Oryctolagus cuniculus); conditions: 3 μM, 2 μM Lifeact-mCherry, 30 μM F-actin
T1 construct: Actin was purified from acetone powder derived from the psoas muscle; made in house; host or cells: actin from rabbit psoas muscle; Lifeact-mCherry from E. coli, pE-SUMOpro
Description: Actin was purified from acetone powder derived from the psoas muscle of New Zealand white rabbit (Oryctolagus cuniculus). Filamentous (F)-actin was stored for up to 3 days on ice before use in binding assays. Within an hour of the binding assay, the F-actin was clarified at 100,000×g at 4° C. for 10 min prior to setting up binding assays. The L253P β-III-spectrin ABD was expressed in E. coli BL21(DE3) (Novagen). The ABD was purified and the His-SUMO tag proteolytically removed, as previously described, except size-exclusion chromatography was not performed due to the high purity of the ABD protein. Lifeact-mCherry protein was similarly prepared. A Bradford assay was performed to determine clarified F-actin and ABD protein concentrations.
(§1) F-actin and ABD binding assays were performed as previously described. In brief, binding assays used 1 μM ABD protein, 1 μM F-actin and 1-50 μM compound (as indicated) or DMSO control for a total reaction volume of 60 μL in F-buffer containing 10 mM Tris, pH 7.5, 150 mM NaCl, 0.5 mM ATP, 2 mM MgCl2, and 1 mM DTT. Following 30 min incubation at room temperature (21° C.). F-actin was pelleted using centrifugation at 100,000×g at 25° C. for 30 min. Unbound ABD in the supernatant was measured following SDS-PAGE and Coomassie blue staining in accord. In addition, control co-sedimentations assays that lacked actin were performed to test if compounds cause ABD aggregation. F-actin and Lifeact-mCherry binding assays were undertaken with 2 μM Lifeact-mCherry, 30 μM F-actin and 1-50 μM compound (as indicated) or DMSO control for a total reaction volume of 80 μL in F-buffer. For a no-actin binding control, an assay sample with no F-actin was also set up. Binding reactions were allowed to reach equilibrium at room temperature (21° C.) for 30 min and then F-actin was pelleted by centrifugation at 100,000×g at 25° C. for 30 min. The amount of unbound Lifeact-mCherry was sampled by loading 7 μL of spin supernatant on a low volume black bottom 384-well plate (Greiner). Amount of mCherry was determined by acquiring fluorescence spectrum peak intensity at ˜600 nm using a spectral unmixing plate reader (Fluorescence Innovations, Inc) equipped with a 532 nm laser (Laserglow Technologies, Ontario, Canada) for excitation, 532 nm longpass filter for emission, and PMT for emission detection. The fraction of Lifeact-mCherry bound to F-actin was determined by subtracting from one the fraction of supernatant fluorescence intensity relative to the no-actin control sample, using the following equation:
[formula] • Where Fcontrol/DMSO is the peak mCherry fluorescence of assay samples containing compound or DMSO control, and Fno-actin is the peak mCherry fluorescence of assay samples that contained no F-actin. 2.9 Trypan Blue Cell Viability Assays

actin = actin sedimentation assay; read-out: previously reported affinity value; cited from earlier work
ABD-L253P = molecular target: T2, ABD-L253P (Homo sapiens, UniProt O15020, L253P); test: Sedimentation of ABD L253P without actin (aggregation); conditions: 1.6 μM
T2 construct: His-SUMO (cleaved yes); made in house; host or cells: E. coli BL21(DE3), pE-SUMOpro
T2 sequence (O15020 1-284 L253P): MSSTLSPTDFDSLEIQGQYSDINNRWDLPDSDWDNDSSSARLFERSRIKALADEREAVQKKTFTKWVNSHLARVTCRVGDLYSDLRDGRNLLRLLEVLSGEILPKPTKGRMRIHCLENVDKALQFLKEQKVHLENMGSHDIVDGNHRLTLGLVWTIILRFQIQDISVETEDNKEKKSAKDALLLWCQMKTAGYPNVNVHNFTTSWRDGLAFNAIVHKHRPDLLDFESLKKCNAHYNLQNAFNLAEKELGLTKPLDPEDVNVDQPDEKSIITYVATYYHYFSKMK
Description: as §1, with “equation: […]” for “equation:”
In addition to a reduction in cell viability, the primary and counter screen may be sensitive to compounds that promote ABD-L253P protein aggregation. […] Our ABD-L253P to actin co-sedimentation assay is unlikely to be sensitive to ABD aggregation, as it is set up to monitor maximal sedimentation of ABD-L253P with actin at ˜90% ABD-L253P co-sedimenting. To directly measure the impact of 10 μM Hit compounds on ABD aggregation, we repeated the ABD-actin co-sedimentation without actin present.

[2] = molecular target: T3, ternary complex consisting of GFP-ABD-L253P, Lifeact-mCherry, and actin (Homo sapiens, UniProt O15020, L253P); test: Primary live-cell time-resolved FRET assay (GFP-ABD-L253P plus Lifeact-mCherry); format: cell-based; conditions: 12-point concentration response 0.01 to 30 μM, 1536-well plates, average of 3 plates; read-out: EC50 of FRET reduction
T3 construct: L252P β-III-spectrin (human) ABD residues 1-284; expressed in transfected cells; host or cells: HEK293-6E, pTT5 vector, transient
T3 sequence (O15020 1-284 L253P, one chain of several): as the sequence (O15020 1-284 L253P) above

HEK293-6E cells = test: Trypan blue cell viability assay; format: cell-based; conditions: 3 μM, 3 hrs
Description: HEK293-6E cell viability was measured using trypan blue (0.03%) staining and a Countess Automated Cell counter (Invitrogen). Non-transfected HEK293-6E cells were spun at 100×g for 5 min at 21° C., and resuspended in 10 mL of PBS. The centrifugation and resuspension were repeated twice more. Final cell concentration was 1×10^6 cells/mL. Cells were incubated with 2% DMSO, or 3-50 μM compound (as indicated) for 3 hrs at room temperature (21° C.). After addition of 100 μL of 0.06% trypan blue solution in PBS, 10 μL was loaded on a slide and injected into the cell counter, and cell viability was measured.

CO[C@H]1C[C@H](CC[C@H](C)[C@H](O)[C@H](C)[C@H]2OC(=O)/C=C/C(C)=C/C[C@H](O)C[C@@H]3C=CC[C@@H](C[C@H](OC)[C@@H](C)[C@@H](O)C[C@@H](O)[C@H](C)[C@@H]([C@@H](C)[C@@H](O)[C@@H](C)CC[C@H]4C[C@H](OC)C[C@H](C)O4)OC(=O)/C=C/C(C)=C/C[C@H](O)C[C@@H]4C=CC[C@@H](C[C@H](OC)[C@@H](C)[C@@H](O)C[C@@H](O)[C@@H]2C)O4)O3)O[C@@H](C)C1 [swinholide A]
effect on Lifeact-mCherry binding with actin [1]: did reduce; also recorded: reduce Lifeact-mCherry binding with actin | Kd (actin): 50 nM | ABD sedimentation without actin (ABD-L253P): does not alter ABD sedimentation | EC50 [2]: 264 nM | effect on HEK293-6E cell viability (HEK293-6E cells): did not significantly alter and not

From US11656221B2, “Methods to identify modulators of actin-binding proteins” (Regents of the University of Minnesota, priority 2019, dated 2023)
